# Assay results as given in US20260014285A1, “POLYPEPTIDE COMPOUND, AND COMPLEX AND USE THEREOF” (HANGZHOU HEALTHYTIDE BIOTECHNOLOGY CO., LTD., priority 2022, published 2026).
# Non-standard residues stand in square brackets, D forms with d. Residues, ends and D or L forms follow the SMILES beside them. ξ: configuration not given here. *: point of attachment. DOTA = O=C(O)CN1CCN(CC(=O)O)CCN(CC(=O)*)CCN(CC(=O)O)CC1; NOTA = O=C(O)CN1CCN(CC(=O)O)CCN(CC(=O)*)CC1; PEG4 = NCCOCCOCCOCCOCCC(=O)O; ξIle = CC[C@H](C)C(N)C(=O)O; Pip = O=C(O)[C@@H]1CCCCN1; ξN = NC(=O)CC(N)C(=O)O; Aib = CC(C)(N)C(=O)O; AEA = NCCOCC(=O)O
# How the values were obtained:
# [1] = target: integrin α5β1 (Homo sapiens, UniProt P05556+P08648); test: Target affinity test by surface plasmon resonance (SPR), integrin α5β1; assay type: binding; conditions: for affinity constant (KD) to integrin α5β1, in words: SPR; for Kd: SPR (Biacore T200), CM5 chip, 25° C., KD=Kd/Ka
# Protocol: (§1) Surface plasmon resonance (SPR) technique was used to test the affinity of the compound in the examples to the target protein integrin α5β1. Specifically, the following operations were performed.
# (§2) The affinity constants (KD) of the compounds to the target proteins integrin α5β1, αvβ3, and αvβ5 were calculated according to the formula of KD=Kd/Ka (the lower the value of KD, the higher the affinity of the compounds of the examples to the target protein integrin α5β1).
# [2] = target: integrin αvβ3 (Homo sapiens, UniProt P05106+P06756); test: Target affinity test by surface plasmon resonance (SPR), integrin αvβ3; assay type: binding; conditions: for affinity constant (KD) to integrin αvβ3, in words: SPR; for Kd: SPR (Biacore T200), CM5 chip, 25° C., KD=Kd/Ka
# Protocol: as §1, §2
# [3] = in vivo; design: species or system mice; conditions: M-NSG, mouse, iv, 100 uCi, total radioactivity
# Protocol: (§3) For example, labeling TM4 with radioactive ^68Ga: An aqueous solution of TM4 (DOTA-Asn-Asp-Val-Ile-Asn-OH) (20 μg) was added to the prepared ^68GaCl3 solution, and the pH was adjusted to 3-5 with aqueous sodium acetate and acetic acid. This system was reacted at 70-95° C. for 15 min, and then purified after the reaction was completed to obtain a labeled solution of ^68Ga-DOTA-Asn-Asp-Val-Ile-Asn-OH (^68Ga-TM4).
# (§4) All compounds were labeled with ^68Ga in the same way as described above.
# Approximately 100 μCi of ^68Ga injection was injected into the tail vein of M-NSG mice inoculated with H1975. […] Table 6 was obtained by image post-processing.
# [4] = in vivo; design: species or system mice; conditions: naked (nude), mouse, iv, 100 uCi, total radioactivity
# Protocol: as §3, §4
# Approximately 100 μCi of ^68Ga injection was injected into the tail vein of naked mice inoculated with SKOV3.
# [5] = in vivo; design: species or system mice; conditions: naked (nude), mouse, iv, 100 uCi, total radioactivity; remark: listed apart in the source
# Protocol: as §3, §4
# Approximately 100 μCi of ^68Ga injection was injected into the tail vein of naked mice inoculated with MC38.
# Chain of integrin αvβ3 (P06756 31-992 limits assumed): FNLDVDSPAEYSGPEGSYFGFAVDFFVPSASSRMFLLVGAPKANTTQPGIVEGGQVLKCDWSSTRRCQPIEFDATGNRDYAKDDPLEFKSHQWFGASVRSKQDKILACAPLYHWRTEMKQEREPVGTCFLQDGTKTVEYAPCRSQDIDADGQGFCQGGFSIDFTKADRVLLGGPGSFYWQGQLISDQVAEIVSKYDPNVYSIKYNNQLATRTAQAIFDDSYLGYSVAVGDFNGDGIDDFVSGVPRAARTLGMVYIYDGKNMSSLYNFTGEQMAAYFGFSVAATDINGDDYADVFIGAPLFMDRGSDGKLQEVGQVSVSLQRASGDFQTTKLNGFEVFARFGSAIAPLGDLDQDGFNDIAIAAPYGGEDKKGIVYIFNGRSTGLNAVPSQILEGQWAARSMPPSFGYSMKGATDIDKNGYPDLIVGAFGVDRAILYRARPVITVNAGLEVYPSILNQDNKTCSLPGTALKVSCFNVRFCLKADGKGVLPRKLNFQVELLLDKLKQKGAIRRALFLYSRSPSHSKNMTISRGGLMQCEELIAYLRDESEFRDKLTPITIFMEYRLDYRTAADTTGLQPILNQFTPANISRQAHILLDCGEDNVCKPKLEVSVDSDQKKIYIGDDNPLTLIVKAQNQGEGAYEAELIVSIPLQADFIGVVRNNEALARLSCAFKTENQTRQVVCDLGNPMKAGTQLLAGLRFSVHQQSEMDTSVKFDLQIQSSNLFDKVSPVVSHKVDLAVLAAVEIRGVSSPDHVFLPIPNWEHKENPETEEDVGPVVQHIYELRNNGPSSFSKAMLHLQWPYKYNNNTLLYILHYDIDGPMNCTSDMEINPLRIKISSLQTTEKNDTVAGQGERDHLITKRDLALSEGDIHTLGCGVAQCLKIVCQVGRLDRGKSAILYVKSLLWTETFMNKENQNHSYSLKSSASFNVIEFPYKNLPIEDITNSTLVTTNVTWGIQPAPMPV
# Chain of integrin αvβ3 (P05106 27-718 limits assumed): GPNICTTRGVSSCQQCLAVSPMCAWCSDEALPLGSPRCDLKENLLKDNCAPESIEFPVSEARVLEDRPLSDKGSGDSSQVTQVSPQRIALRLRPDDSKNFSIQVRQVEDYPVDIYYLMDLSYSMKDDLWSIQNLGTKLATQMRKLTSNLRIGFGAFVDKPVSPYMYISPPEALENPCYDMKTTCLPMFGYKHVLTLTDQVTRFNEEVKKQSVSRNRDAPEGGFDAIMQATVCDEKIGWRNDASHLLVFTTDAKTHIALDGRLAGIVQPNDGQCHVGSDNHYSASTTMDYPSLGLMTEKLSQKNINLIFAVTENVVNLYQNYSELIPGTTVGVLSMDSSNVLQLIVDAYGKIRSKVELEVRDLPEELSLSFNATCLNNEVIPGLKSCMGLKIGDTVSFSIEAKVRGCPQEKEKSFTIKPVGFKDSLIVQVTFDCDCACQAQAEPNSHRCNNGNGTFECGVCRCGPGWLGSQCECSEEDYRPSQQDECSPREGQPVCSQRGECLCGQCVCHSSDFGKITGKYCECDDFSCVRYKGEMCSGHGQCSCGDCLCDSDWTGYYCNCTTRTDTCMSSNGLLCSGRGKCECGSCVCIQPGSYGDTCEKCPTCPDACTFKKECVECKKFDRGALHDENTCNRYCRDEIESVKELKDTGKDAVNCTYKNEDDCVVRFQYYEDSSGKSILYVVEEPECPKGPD
# Chain of integrin α5β1 (P08648 42-995 limits assumed): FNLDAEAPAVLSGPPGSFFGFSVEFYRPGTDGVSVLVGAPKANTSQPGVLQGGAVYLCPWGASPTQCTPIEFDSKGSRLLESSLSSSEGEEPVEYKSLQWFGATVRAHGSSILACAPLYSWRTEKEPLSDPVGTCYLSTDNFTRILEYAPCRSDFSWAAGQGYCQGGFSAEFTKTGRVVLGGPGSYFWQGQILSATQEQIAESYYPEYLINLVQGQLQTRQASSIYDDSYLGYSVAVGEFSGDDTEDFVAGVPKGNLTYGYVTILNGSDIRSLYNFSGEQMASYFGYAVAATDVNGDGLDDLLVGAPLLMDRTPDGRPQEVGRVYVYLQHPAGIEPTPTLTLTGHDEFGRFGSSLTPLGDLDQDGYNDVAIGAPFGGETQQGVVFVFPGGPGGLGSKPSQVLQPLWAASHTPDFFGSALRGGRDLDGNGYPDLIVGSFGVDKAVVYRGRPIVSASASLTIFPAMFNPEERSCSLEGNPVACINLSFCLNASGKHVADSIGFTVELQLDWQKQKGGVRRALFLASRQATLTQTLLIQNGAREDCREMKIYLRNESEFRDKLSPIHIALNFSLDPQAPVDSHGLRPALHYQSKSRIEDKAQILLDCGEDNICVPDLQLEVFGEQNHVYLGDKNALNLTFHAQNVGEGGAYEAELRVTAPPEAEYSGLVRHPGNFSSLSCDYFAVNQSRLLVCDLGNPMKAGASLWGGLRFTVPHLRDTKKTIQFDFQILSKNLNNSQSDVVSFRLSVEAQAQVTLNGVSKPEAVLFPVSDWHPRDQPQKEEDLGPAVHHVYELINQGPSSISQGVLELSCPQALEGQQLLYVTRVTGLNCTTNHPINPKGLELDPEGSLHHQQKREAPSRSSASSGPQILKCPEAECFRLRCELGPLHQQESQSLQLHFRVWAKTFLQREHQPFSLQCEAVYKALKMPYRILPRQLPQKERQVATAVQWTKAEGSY
# Chain of integrin α5β1 (P05556 21-728 limits assumed): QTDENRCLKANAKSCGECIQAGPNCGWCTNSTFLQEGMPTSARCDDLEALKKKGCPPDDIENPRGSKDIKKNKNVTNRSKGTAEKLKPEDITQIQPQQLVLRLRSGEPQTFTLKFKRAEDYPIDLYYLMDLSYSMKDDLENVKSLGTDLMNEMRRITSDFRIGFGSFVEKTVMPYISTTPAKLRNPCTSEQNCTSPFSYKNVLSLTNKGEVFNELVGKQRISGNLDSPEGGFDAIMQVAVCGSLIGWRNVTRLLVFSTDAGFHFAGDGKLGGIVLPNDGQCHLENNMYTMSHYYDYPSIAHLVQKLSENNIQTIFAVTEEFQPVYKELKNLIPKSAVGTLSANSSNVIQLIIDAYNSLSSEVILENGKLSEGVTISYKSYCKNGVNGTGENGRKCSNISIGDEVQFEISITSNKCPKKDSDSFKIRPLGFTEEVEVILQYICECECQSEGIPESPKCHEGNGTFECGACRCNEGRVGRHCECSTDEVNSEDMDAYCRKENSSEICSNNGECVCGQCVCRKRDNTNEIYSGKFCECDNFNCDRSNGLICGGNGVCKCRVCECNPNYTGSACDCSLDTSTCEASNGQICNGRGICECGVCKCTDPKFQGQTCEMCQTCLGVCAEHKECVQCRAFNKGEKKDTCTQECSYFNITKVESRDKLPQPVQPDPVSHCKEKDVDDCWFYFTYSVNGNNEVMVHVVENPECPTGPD
SMILES,"affinity constant (KD) to integrin α5β1, in words [1]",Kd [1] [nM],tissue uptake at 1 h ([3]; % ID/g Bone) [%ID/g],tissue uptake at 1 h ([3]; % ID/g Brain) [%ID/g],tissue uptake at 1 h ([3]; % ID/g Heart) [%ID/g],tissue uptake at 1 h ([3]; % ID/g Intestine) [%ID/g],tissue uptake at 1 h ([3]; % ID/g Kidney) [%ID/g],tissue uptake at 1 h ([3]; % ID/g Liver) [%ID/g],tissue uptake at 1 h ([3]; % ID/g Lung) [%ID/g],tissue uptake at 1 h ([3]; % ID/g Muscle) [%ID/g],tissue uptake at 1 h ([3]; % ID/g Tumor) [%ID/g],also measured
CC[C@H](C)C(NC(=O)[C@@H](NC(=O)[C@H](CC(=O)O)NC(=O)[C@H](CC(=O)O)NC(=O)CNC(=O)[C@H](CCCNC(=N)N)NC(=O)CN1CCN(CC(=O)O)CCN(CC(=O)O)CC1)C(C)C)C(=O)N[C@@H](CC(N)=O)C(=O)N[C@@H](Cc1ccccc1)C(=O)O (some centres unmarked) [TM3] ({NOTA}-RGDDV[ξIle]NF-OH),better than nM level,1.92,,,,,,,,,,
"CC[C@H](C)[C@H](NC(=O)[C@@H](NC(=O)[C@H](CC(=O)O)NC(=O)[C@H](CC(N)=O)NC(=O)CN1CCN(CC(=O)O)CCN(CC(=O)O)CCN(CC(=O)O)CC1)C(C)C)C(=O)N[C@@H](CC(N)=O)C(=O)O [TM4, DOTA-Asn-Asp-Val-Ile-Asn-OH] ({DOTA}-NDVIN-OH)",,16,,,,,,,,,,"affinity constant (KD) to integrin αvβ3, in words [2]: nM level; Kd [2]: 2.88 nM"
CC[C@H](C)[C@H](NC(=O)[C@@H](NC(=O)[C@H](CC(=O)O)NC(=O)[C@H](CC(N)=O)NC(=O)CCOCCOCCOCCOCCNC(=O)CN1CCN(CC(=O)O)CCN(CC(=O)O)CCN(CC(=O)O)CC1)C(C)C)C(=O)N[C@@H](CC(N)=O)C(=O)O [TM5] ({DOTA-PEG4}-NDVIN-OH),better than nM level,2.77,,,,,,,,,,
CC[C@H](C)[C@H](NC(=O)[C@@H](NC(=O)[C@H](CC(=O)O)NC(=O)[C@H](CC(N)=O)NC(=O)[C@H](CC(=O)O)NC(=O)CNC(=O)[C@H](CCCNC(=N)N)NC(=O)CN1CCN(CC(=O)O)CCN(CC(=O)O)CCN(CC(=O)O)CC1)C(C)C)C(=O)N[C@@H](CC(N)=O)C(=O)O [TM6] ({DOTA}-RGDNDVIN-OH),,239,,,,,,,,,,
CC[C@H](C)[C@H](NC(=O)[C@@H](NC(=O)[C@H](CC(=O)O)NC(=O)[C@H](CC(N)=O)NC(=O)[C@H](CC(=O)O)NC(=O)CNC(=O)[C@H](CCCNC(=N)N)NC(=O)CCOCCOCCOCCOCCNC(=O)CN1CCN(CC(=O)O)CCN(CC(=O)O)CCN(CC(=O)O)CC1)C(C)C)C(=O)N[C@@H](CC(N)=O)C(=O)O [TM7] ({DOTA-PEG4}-RGDNDVIN-OH),,43.9,,,,,,,,,,
CC[C@H](C)[C@H](NC(=O)[C@@H]1CCCCN1C(=O)[C@H](CC(=O)O)NC(=O)[C@H](CC(N)=O)NC(=O)CN1CCN(CC(=O)O)CCN(CC(=O)O)CCN(CC(=O)O)CC1)C(=O)NC(CC(N)=O)C(=O)O (some centres unmarked) [TM9] ({DOTA}-ND[Pip]I[ξN]-OH),better than nM level,5.58,,,,,,,,,,"affinity constant (KD) to integrin αvβ3, in words [2]: nM level; Kd [2]: 1.8 nM"
CC[C@H](C)[C@H](NC(=O)C(C)(C)NC(=O)[C@H](CC(=O)O)NC(=O)[C@H](CC(N)=O)NC(=O)CN1CCN(CC(=O)O)CCN(CC(=O)O)CCN(CC(=O)O)CC1)C(=O)N[C@@H](CC(N)=O)C(=O)O [TM11] ({DOTA}-ND[Aib]IN-OH),better than nM level,0.0681,,,,,,,,,,Kd [2]: 190 nM
"CC[C@H](C)[C@H](NC(=O)[C@@H](NC(=O)[C@H](CC(=O)O)NC(=O)[C@H](CC(N)=O)NC(=O)CN1CCN(CC(=O)O)CCN(CC(=O)O)CCN(CC(=O)O)CC1)C(C)C)C(=O)N[C@@H](CC(N)=O)C(=O)O [^68Ga-TM4, ^68Ga-DOTA-Asn-Asp-Val-Ile-Asn-OH, metal not drawn] ({DOTA}-NDVIN-OH)",,,0.3,0.5,0.96,0.56,4.8,0.79,0.47,0.36,1.4,
"CC[C@H](C)[C@H](NC(=O)[C@@H](NC(=O)[C@H](CC(=O)O)NC(=O)[C@H](CC(N)=O)NC(=O)CCOCCOCCOCCOCCNC(=O)CN1CCN(CC(=O)O)CCN(CC(=O)O)CCN(CC(=O)O)CC1)C(C)C)C(=O)N[C@@H](CC(N)=O)C(=O)O [^68Ga-TM5, metal not drawn] ({DOTA-PEG4}-NDVIN-OH)",,,0.22,0.25,0.45,0.57,7.4,0.5,0.24,0.21,1.1,
"CC[C@H](C)[C@H](NC(=O)[C@@H](NC(=O)[C@H](CC(=O)O)NC(=O)[C@H](CC(N)=O)NC(=O)[C@H](CC(=O)O)NC(=O)CNC(=O)[C@H](CCCNC(=N)N)NC(=O)CCOCCOCCOCCOCCNC(=O)CN1CCN(CC(=O)O)CCN(CC(=O)O)CCN(CC(=O)O)CC1)C(C)C)C(=O)N[C@@H](CC(N)=O)C(=O)O [^68Ga-TM7, metal not drawn] ({DOTA-PEG4}-RGDNDVIN-OH)",,,0.24,0.24,0.5,0.45,64.5,0.53,0.3,0.28,0.75,
"CC[C@H](C)[C@H](NC(=O)C(C)(C)NC(=O)[C@H](CC(=O)O)NC(=O)[C@H](CC(N)=O)NC(=O)CN1CCN(CC(=O)O)CCN(CC(=O)O)CCN(CC(=O)O)CC1)C(=O)N[C@@H](CC(N)=O)C(=O)O [^68Ga-TM11, metal not drawn] ({DOTA}-ND[Aib]IN-OH)",,,0.27,0.21,0.53,0.5,4,0.43,0.31,0.31,0.94,tissue uptake at 1 h ([4]; % ID/g Bladder): 4.7 %ID/g; tissue uptake at 1 h ([4]; % ID/g Bone): 0.04 %ID/g; tissue uptake at 1 h ([4]; % ID/g Brain): 0.09 %ID/g; tissue uptake at 1 h ([4]; % ID/g Heart): 0.11 %ID/g; tissue uptake at 1 h ([4]; % ID/g Intestine): 0.33 %ID/g; tissue uptake at 1 h ([4]; % ID/g Kidney): 0.52 %ID/g; tissue uptake at 1 h ([4]; % ID/g Liver): 0.15 %ID/g; tissue uptake at 1 h ([4]; % ID/g Lung): 0.08 %ID/g; tissue uptake at 1 h ([4]; % ID/g Muscle): 0.05 %ID/g; tissue uptake at 1 h ([4]; % ID/g Tumor): 0.42 %ID/g; tissue uptake at 1 h ([5]; % ID/g Bladder): 18.9 %ID/g; tissue uptake at 1 h ([5]; % ID/g Bone): 0.08 %ID/g; tissue uptake at 1 h ([5]; % ID/g Brain): 0.18 %ID/g; tissue uptake at 1 h ([5]; % ID/g Heart): 0.25 %ID/g; tissue uptake at 1 h ([5]; % ID/g Intestine): 0.59 %ID/g; tissue uptake at 1 h ([5]; % ID/g Kidney): 1.2 %ID/g; tissue uptake at 1 h ([5]; % ID/g Liver): 0.29 %ID/g; tissue uptake at 1 h ([5]; % ID/g Lung): 0.15 %ID/g; tissue uptake at 1 h ([5]; % ID/g Muscle): 0.08 %ID/g; tissue uptake at 1 h ([5]; % ID/g Tumor): 0.73 %ID/g
"CC[C@H](C)[C@H](NC(=O)[C@@H](NC(=O)[C@H](CC(=O)O)NC(=O)[C@H](CC(N)=O)NC(=O)COCCNC(=O)CN1CCN(CC(=O)O)CCN(CC(=O)O)CCN(CC(=O)O)CC1)C(C)C)C(=O)N[C@@H](CC(N)=O)C(=O)O [^68Ga-TM13, metal not drawn] ({DOTA-AEA}-NDVIN-OH)",,,0.13,0.2,0.49,0.6,3.9,0.5,0.32,0.23,0.97,tissue uptake at 1 h ([4]; % ID/g Bladder): 15.6 %ID/g; tissue uptake at 1 h ([4]; % ID/g Bone): 0.08 %ID/g; tissue uptake at 1 h ([4]; % ID/g Brain): 0.09 %ID/g; tissue uptake at 1 h ([4]; % ID/g Heart): 0.17 %ID/g; tissue uptake at 1 h ([4]; % ID/g Intestine): 0.85 %ID/g; tissue uptake at 1 h ([4]; % ID/g Kidney): 1.4 %ID/g; tissue uptake at 1 h ([4]; % ID/g Liver): 0.3 %ID/g; tissue uptake at 1 h ([4]; % ID/g Lung): 0.12 %ID/g; tissue uptake at 1 h ([4]; % ID/g Muscle): 0.08 %ID/g; tissue uptake at 1 h ([4]; % ID/g Tumor): 0.49 %ID/g; tissue uptake at 1 h ([5]; % ID/g Bladder): 7.3 %ID/g; tissue uptake at 1 h ([5]; % ID/g Bone): 0.05 %ID/g; tissue uptake at 1 h ([5]; % ID/g Brain): 0.09 %ID/g; tissue uptake at 1 h ([5]; % ID/g Heart): 0.11 %ID/g; tissue uptake at 1 h ([5]; % ID/g Intestine): 0.2 %ID/g; tissue uptake at 1 h ([5]; % ID/g Kidney): 1.6 %ID/g; tissue uptake at 1 h ([5]; % ID/g Liver): 0.16 %ID/g; tissue uptake at 1 h ([5]; % ID/g Lung): 0.08 %ID/g; tissue uptake at 1 h ([5]; % ID/g Muscle): 0.05 %ID/g; tissue uptake at 1 h ([5]; % ID/g Tumor): 0.2 %ID/g
